The text below walks through data of US4311698A, “Aminoacid derivatives of cephalosporin compounds” (priority 1980, dated 1982).

Values after ≈ are worked out from the molar mass of the structure shown.

Holding throughout (format): cell-based
In experiment [1] the test system is Pseudomonas UI 18. The experiment can be described thus: In vitro minimal inhibitory concentration, Pseudomonas UI 18. The conditions noted are these: UI18.
The subject of experiment [2] is E. Coli. Vogel. As to the kind of experiment: In vitro minimal inhibitory concentration, E. Coli. Vogel. The conditions noted are these: Escherichia coli.
Experiment [3] has as its system Pseudomonas BRK 12-4-4. The experiment can be described thus: In vitro minimal inhibitory concentration, Pseudomonas BRK 12-4-4. The conditions noted are these: BRK1244.
Experiment [4] concerns Staph S 18713. As to the kind of experiment: In vitro minimal inhibitory concentration, Staph S 18713.
Experiment [5] has as its system Serr. Mar. IMM 16. As to the kind of experiment: In vitro minimal inhibitory concentration, Serr. Mar. IMM 16.
Experiment [6] concerns Klebs. Pneum. MGH 2. As to the kind of experiment: In vitro minimal inhibitory concentration, Klebs. Pneum. MGH 2.
Experiment [7] has as its system Staph UC76. The experiment can be described thus: In vitro minimal inhibitory concentration, Staph UC76.
The subject of experiment [8] is Strep. fec. MGH 2. As to the kind of experiment: In vitro minimal inhibitory concentration, Strep. fec. MGH 2.
For experiment [9], the system named is Entero Cloac. IM 11. The experiment can be described thus: In vitro minimal inhibitory concentration, Entero Cloac. IM 11.
The test system of experiment [10] is Prot Vulg. As to the kind of experiment: In vitro minimal inhibitory concentration, Prot Vulg.
Experiment [11] has as its system E. Coli. Brig. As to the kind of experiment: In vitro minimal inhibitory concentration, E. Coli. Brig. The conditions noted are these: Escherichia coli.
In experiment [12] the test system is Pseudomonas #28. As to the kind of experiment: In vitro minimal inhibitory concentration, Pseudomonas #28. The conditions noted are these: Pseudomonas #28; in vitro; read-out: Minimal Inhibitory Concentration.

For the molecule `CC(=O)NC(C)C(=O)Nc1ccc(-c2ccc(C(=O)N[C@@H](C(=O)NC3C(=O)N4C(C(=O)O)=C(COC(N)=O)CSC34)c3ccccc3)c(=O)[nH]2)cc1` (mixture of isomers) [Example 10, N-[6-[4(N-Acetyl-DL-alanylamino)phenyl]-1,2-dihydro-2-oxonicotinyl]-7-[D-2-amino-2-phenylacetamido]-3-carbamoyloxymethyl-3-cephem-4-carboxylic acid], the MIC was 6.3 µg/mL in experiment [1]; 6.3 µg/mL in [2]; 12.5 µg/mL in experiment [3]; 3.1 µg/mL in [4]; more than 50 µg/mL in [5]; 12.5 µg/mL in experiment [6]. Further, the MIC is 1.6 µg/mL in [7]; 12.5 µg/mL in experiment [8]; 25 µg/mL in experiment [9]; 12.5 µg/mL in [10]; 12.5 µg/mL in experiment [11]; 3.1 µg/mL in experiment [12].
On to `CC(=O)OCC1=C(C(=O)O)N2C(=O)C(NC(=O)[C@H](NC(=O)c3ccc(-c4ccc(NC(=O)C5CCCN5C(C)=O)cc4)[nH]c3=O)c3ccccc3)C2SC1` (mixture of isomers) [Example 17, N-[6-[4-(N-Acetyl-DL-prolylamino)phenyl]-1,2-dihydro-2-oxonicotinyl]-7-[D-2-amino-2-phenylacetamido]-3-acetoxymethyl-3-cephem-4-carboxylic acid], for which the MIC is 12.5 µg/mL in [1]; 3.1 µg/mL in [2]; 25 µg/mL in [3]; 3.1 µg/mL in experiment [4]; 50 µg/mL in experiment [5]; 12.5 µg/mL in experiment [6]. Moreover, the MIC in [7] is 1.6 µg/mL; in experiment [8] it was 50 µg/mL; in experiment [9] it was 25 µg/mL; in experiment [10], 25 µg/mL; in experiment [11], 25 µg/mL; in experiment [12], 12.5 µg/mL.
For `CC(=O)N[C@H](C)C(=O)Nc1ccc(-c2ccc(C(=O)N[C@@H](C(=O)NC3C(=O)N4C(C(=O)O)=C(COC(N)=O)CSC34)c3ccccc3)c(=O)[nH]2)cc1` (stereo partly drawn) [Example 24, N-[6-[4(N-Acetyl-D-alanylamino)phenyl]-1,2-dihydro-2-oxonicotinyl]-7-[D-2-amino-phenylacetamido]-3-carbamoyloxymethyl-3-cephem-4-carboxylic acid], the MIC is 12.5 µg/mL (≈ 17.1 µM) in experiment [1]; 6.3 µg/mL (≈ 8.61 µM) in experiment [2]; 12.5 µg/mL (≈ 17.1 µM) in experiment [3]; more than 50 µg/mL in [5]; 12.5 µg/mL (≈ 17.1 µM) in experiment [6]; 0.4 µg/mL (≈ 0.547 µM) in [7]. In addition, the MIC came to 25 µg/mL (≈ 34.2 µM) in experiment [8]; 25 µg/mL (≈ 34.2 µM) in experiment [9]; 12.5 µg/mL (≈ 17.1 µM) in experiment [10]; 25 µg/mL (≈ 34.2 µM) in experiment [11]; 12.5 µg/mL (≈ 17.1 µM) in [12].
`CC(=O)N[C@H](CCC(N)=O)C(=O)Nc1ccc(-c2ccc(C(=O)N[C@@H](C(=O)NC3C(=O)N4C(C(=O)O)=C(CSc5nnnn5CC(=O)O)CSC34)c3ccccc3)c(=O)[nH]2)cc1` (stereo partly drawn) [Example 37, N-[6-[4-(N-Acetyl-D-glutaminylamino)phenyl]-1,2-dihydro-2-oxonicotinyl]-7-[D-2-amino-2-phenylacetamido]-3-[[(1-carboxymethyl-1H-tetrazol-5-yl)thio]methyl]-3-cephem-4-carboxylic acid]: the MIC in experiment [1] was 12.5 µg/mL (≈ 14.1 µM); in [2], 0.8 µg/mL (≈ 0.901 µM); in experiment [3], 12.5 µg/mL (≈ 14.1 µM); in experiment [5], 12.5 µg/mL (≈ 14.1 µM); in [6], 3.1 µg/mL (≈ 3.49 µM); in experiment [7] it was 6.3 µg/mL (≈ 7.1 µM). Also, the MIC was more than 50 µg/mL in experiment [8]; 6.3 µg/mL (≈ 7.1 µM) in experiment [9]; 3.1 µg/mL (≈ 3.49 µM) in experiment [10]; 6.3 µg/mL (≈ 7.1 µM) in experiment [11]; 6.3 µg/mL (≈ 7.1 µM) in experiment [12].
